Experimental data taken from US6737383B1, “Herbicidal oxadiazolidines” (priority 1999, dated 2004).

Key:
blackgrass = experiment: Test B pre/postemergence blackgrass; assay type: in vivo, Alopecurus myosuroides
Summary of the method: (§1)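 Test chemicals in a non-phytotoxic solvent mixture with surfactant were sprayed preemergence onto planted seeds and postemergence onto plants 2 to 18 cm tall (1- to 4-leaf stage). After twelve to sixteen days in a greenhouse, injury was visually rated against untreated controls from 0 (no effect) to 10 (complete control).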

crabgrass = experiment: Test B pre/postemergence crabgrass; assay type: in vivo, Digitaria sanguinalis
Summary of the method: as §1

purple nutsedge = experiment: Test B pre/postemergence purple nutsedge; assay type: in vivo, Cyperus rotundus
Summary of the method: as §1

rape = experiment: Test B pre/postemergence rape; assay type: in vivo, Brassica napus
Summary of the method: as §1

bamyardgrass = experiment: Test B flood test barnyardgrass; assay type: in vivo, Echinochloa crus-galli
Summary of the method: (§2)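 Flood test on plants grown to the 2-leaf stage; treated plants kept in greenhouse twelve to sixteen days, then visually rated against controls on a 0 (no effect) to 10 (complete control) scale.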

velvetleaf = experiment: Test B pre/postemergence velvetleaf; assay type: in vivo, Abutilon theophrasti
Summary of the method: as §1

pigweed = experiment: Test B pre/postemergence pigweed; assay type: in vivo, Amaranthus retroflexus
Summary of the method: as §1

cocklebur = experiment: Test B pre/postemergence cocklebur; assay type: in vivo, Xanthium strumarium
Summary of the method: as §1

giant foxtail = experiment: Test B pre/postemergence giant foxtail; assay type: in vivo, Setaria faberii
Summary of the method: as §1

duck salad = experiment: Test B flood test duck salad; assay type: in vivo, Heteranthera limosa
Summary of the method: as §2

corn = experiment: Test B pre/postemergence corn; assay type: in vivo, Zea mays
Summary of the method: as §1

bedstraw = experiment: Test B pre/postemergence bedstraw; assay type: in vivo, Galium aparine
Summary of the method: as §1

wheat = experiment: Test B pre/postemergence wheat; assay type: in vivo, Triticum aestivum
Summary of the method: as §1

soybean = experiment: Test B pre/postemergence soybean; assay type: in vivo, Glycine max
Summary of the method: as §1

surinam grass = experiment: Test B pre/postemergence surinam grass; assay type: in vivo, Brachiaria decumbens
Summary of the method: as §1

smallflower flatsedge = experiment: Test B flood test smallflower flatsedge; assay type: in vivo, Cyperus difformis
Summary of the method: as §2

rice = experiment: Test B flood test rice; assay type: in vivo, Oryza sativa
Summary of the method: as §2

wild oat = experiment: Test B pre/postemergence wild oat; assay type: in vivo, Avena fatua
Summary of the method: as §1

morningglory = experiment: Test B pre/postemergence morningglory; assay type: in vivo, Ipomoea hederacea
Summary of the method: as §1

sugar beet = experiment: Test B pre/postemergence sugar beet; assay type: in vivo, Beta vulgaris
Summary of the method: as §1

[1] = Preemergence, Rate 62 g/ha, scale of 0 to 10 where 0 is no effect and 10 is complete control
[2] = Preemergence, Rate 250 g/ha, scale of 0 to 10 where 0 is no effect and 10 is complete control
[3] = Preemergence, Rate 500 g/ha, scale of 0 to 10 where 0 is no effect and 10 is complete control
[4] = Rate 62 g/ha, Postemergence, scale of 0 to 10 where 0 is no effect and 10 is complete control
[5] = Rate 125 g/ha, Postemergence, scale 0 to 10
[6] = Rate 125 g/ha, Preemergence, scale of 0 to 10 where 0 is no effect and 10 is complete control
[7] = Rate 500 g/ha, Postemergence, scale 0 to 10, 0 no effect, 10 complete control
[8] = Rate 62 g/ha, headed Pre-emergence (flood test species), scale 0 to 10 (0 no effect, 10 complete control)
[9] = Rate 125 g/ha, Pre-emergence, flood test species, scale 0 to 10 where 0 is no effect and 10 is complete control
[10] = Rate 250 g/ha, Pre-emergence, flood-test species, scale 0 to 10, 0 is no effect, 10 is complete control
[11] = Rate 500 g/ha, Pre-emergence, flood test species, scale 0 to 10 (0 no effect, 10 complete control)

CCCCCCCCCCCCCCCCCCCn1c(=O)on(C(=O)N(c2ccc(F)cc2)C(C)C)c1=O [Compound 253]
0: Blackgrass plant response rating (blackgrass; [1]) | Blackgrass plant response rating (blackgrass; [2]) | Plant response rating, Blackgrass (blackgrass; [3]) | Blackgrass plant response rating (blackgrass; [4]) | Blackgrass plant response rating (blackgrass; [5]) | Blackgrass plant response rating (blackgrass; [6]) | Plant response rating (0 to 10; 0 is no effect, 10 is complete control), Blackgrass (blackgrass; Rate 250 g/ha, Postemergence) | Blackgrass plant response rating (blackgrass; [7]) | Crabgrass plant response rating (crabgrass; [1]) | Crabgrass plant response rating (crabgrass; [2]) | Plant response rating, Crabgrass (crabgrass; [3]) | Crabgrass plant response rating (crabgrass; [6]) | Plant response rating (0 to 10; 0 is no effect, 10 is complete control), Crabgrass (crabgrass; Rate 250 g/ha, Postemergence) | Crabgrass plant response rating (crabgrass; [7]) | Plant response rating, Nutsedge (purple nutsedge; [3]) | Plant response rating (0 to 10; 0 is no effect, 10 is complete control), Nutsedge (purple nutsedge; Rate 250 g/ha, Postemergence) | Nutsedge plant response rating (purple nutsedge; [7]) | Rape plant response rating (rape; [1]) | Rape plant response rating (rape; [2]) | Plant response rating, Rape (rape; [3]) | Rape plant response rating (rape; [6]) | Plant response rating (0 to 10; 0 is no effect, 10 is complete control), Rape (rape; Rate 250 g/ha, Postemergence) | Rape plant response rating (rape; [7]) | Barnyardgrass plant response rating (bamyardgrass; [8]) | Barnyardgrass plant response rating (bamyardgrass; [9]) | Barnyardgrass plant response rating (bamyardgrass; [10]) | Barnyardgrass plant response rating (bamyardgrass; [11]) | Velvetleaf plant response rating (velvetleaf; [1]) | Velvetleaf plant response rating (velvetleaf; [2]) | Plant response rating, Velvetleaf (velvetleaf; [3]) | Velvetleaf plant response rating (velvetleaf; [6]) | Velvetleaf plant response rating (velvetleaf; [7]) | Redroot pigweed plant response rating (pigweed; [1]) | Redroot pigweed plant response rating (pigweed; [2]) | Plant response rating, Redroot pigweed (pigweed; [3]) | Redroot pigweed plant response rating (pigweed; [6]) | Plant response rating (0 to 10; 0 is no effect, 10 is complete control), Redroot pigweed (pigweed; Rate 250 g/ha, Postemergence) | Redroot pigweed plant response rating (pigweed; [7]) | Cocklebur plant response rating (cocklebur; [1]) | Cocklebur plant response rating (cocklebur; [2]) | Plant response rating, Cocklebur (cocklebur; [3]) | Cocklebur plant response rating (cocklebur; [4]) | Cocklebur plant response rating (cocklebur; [5]) | Cocklebur plant response rating (cocklebur; [6]) | Plant response rating (0 to 10; 0 is no effect, 10 is complete control), Cocklebur (cocklebur; Rate 250 g/ha, Postemergence) | Cocklebur plant response rating (cocklebur; [7]) | Giant foxtail plant response rating (giant foxtail; [1]) | Giant foxtail plant response rating (giant foxtail; [2]) | Plant response rating, Giant foxtail (giant foxtail; [3]) | Giant foxtail plant response rating (giant foxtail; [6]) | Plant response rating (0 to 10; 0 is no effect, 10 is complete control), Giant foxtail (giant foxtail; Rate 250 g/ha, Postemergence) | Giant foxtail plant response rating (giant foxtail; [7]) | Ducksalad plant response rating (duck salad; [8]) | Ducksalad plant response rating (duck salad; [9]) | Ducksalad plant response rating (duck salad; [10]) | Ducksalad plant response rating (duck salad; [11]) | Corn plant response rating (corn; [1]) | Corn plant response rating (corn; [2]) | Plant response rating, Corn (corn; [3]) | Corn plant response rating (corn; [4]) | Corn plant response rating (corn; [5]) | Corn plant response rating (corn; [6]) | Plant response rating (0 to 10; 0 is no effect, 10 is complete control), Corn (corn; Rate 250 g/ha, Postemergence) | Corn plant response rating (corn; [7]) | Bedstraw plant response rating (bedstraw; [1]) | Bedstraw plant response rating (bedstraw; [2]) | Plant response rating, Bedstraw (bedstraw; [3]) | Bedstraw plant response rating (bedstraw; [4]) | Bedstraw plant response rating (bedstraw; [5]) | Bedstraw plant response rating (bedstraw; [6]) | Plant response rating (0 to 10; 0 is no effect, 10 is complete control), Bedstraw (bedstraw; Rate 250 g/ha, Postemergence) | Bedstraw plant response rating (bedstraw; [7]) | Wheat plant response rating (wheat; [1]) | Wheat plant response rating (wheat; [2]) | Plant response rating, Wheat (wheat; [3]) | Wheat plant response rating (wheat; [6]) | Wheat plant response rating (wheat; [7]) | Soybean plant response rating (soybean; [1]) | Soybean plant response rating (soybean; [2]) | Plant response rating, Soybean (soybean; [3]) | Soybean plant response rating (soybean; [6]) | Soybean plant response rating (soybean; [7]) | B. signalgrass plant response rating (surinam grass; [1]) | B. signalgrass plant response rating (surinam grass; [2]) | Plant response rating, B. signalgrass (surinam grass; [3]) | B. signalgrass plant response rating (surinam grass; [4]) | B. signalgrass plant response rating (surinam grass; Rate 125 g/ha, Postemergence, scale 0 (no effect) to 10 (complete control)) | B. signalgrass plant response rating (surinam grass; [6]) | Plant response rating (0 to 10; 0 is no effect, 10 is complete control), B. signalgrass (surinam grass; Rate 250 g/ha, Postemergence) | B. signalgrass plant response rating (surinam grass; [7]) | S. Flatsedge plant response rating (smallflower flatsedge; [8]) | S. Flatsedge plant response rating (smallflower flatsedge; [9]) | S. Flatsedge plant response rating (smallflower flatsedge; [10]) | S. Flatsedge plant response rating (smallflower flatsedge; [11]) | Rice plant response rating (rice; [8]) | Rice plant response rating (rice; [9]) | Rice plant response rating (rice; [10]) | Rice plant response rating (rice; [11]) | Wild oats plant response rating (wild oat; [1]) | Wild oats plant response rating (wild oat; [2]) | Plant response rating, Wild oats (wild oat; [3]) | Wild oats plant response rating (wild oat; [6]) | Wild oats plant response rating (wild oat; [7]) | Morningglory plant response rating (morningglory; [1]) | Morningglory plant response rating (morningglory; [2]) | Plant response rating, Morningglory (morningglory; [3]) | Morningglory plant response rating (morningglory; [6]) | Plant response rating (0 to 10; 0 is no effect, 10 is complete control), Morningglory (morningglory; Rate 250 g/ha, Postemergence) | Morningglory plant response rating (morningglory; [7]) | Sugarbeets plant response rating (sugar beet; [1]) | Sugarbeets plant response rating (sugar beet; [2]) | Plant response rating, Sugarbeets (sugar beet; [3]) | Sugarbeets plant response rating (sugar beet; [6]) | Sugarbeets plant response rating (sugar beet; [7])
